Conditions: pH 6.5
Experimental: Human gastro-intestinal juice was obtained from healthy male volunteers who had been fasting for 8 h. A tube was introduced intranasally after local anaesthesia with xylocaine, and gastric juice was collected. Thereafter one standardized meal was given 1 h before sampling of duodenal and distal jejunum juice and another the next morning before the collection of distal ileal juice. After centrifugation the gastric and intestinal juices were frozen in aliquots of 1 ml and stored at -20° C. […] The peptide or peptide analog (10 μl of 10 mM peptide in 0.9% aqueous NaCl) was added to 190 μl of undiluted juice at 37° C. Aliquots of 25 μl were withdrawn at intervals and mixed with 100 μl acetone to stop the reaction. After centrifugation for 10 min at 10,000 g, 10 μl of the supernatant was analyzed by reversed phase HPLC. […] Analysis was carried out in a Varian 5000 HPLC analyzer equipped with a UV-detector (220 nm). Column Bondapak TM C18 (3.9×300 mm), eluant MeOH/0.025 M NH4 Ac (isocratic conditions), flow rate 1 ml/min. […] Protein: Bio-Rad protein assay. pH: Orion model SA720; pH-paper Merck (Darmstadt), range 4.0-7.0.

For `NC(=O)CC[C@@H]1NC(=O)[C@H](Cc2ccccc2)NC(=O)[C@H](Cc2ccc(O)cc2)NC(=O)CCSSC[C@@H](C(=O)N2CCC[C@H]2C(=O)N[C@H](CCCN=C(N)N)C(=O)NCC(N)=O)NC(=O)[C@H](CC(N)=O)NC1=O` [DDAVP, Mpa-Tyr-Phe-Gln-Asn-Cys-Pro-D-Arg-Gly-GlyNH2], the “DDAVP degraded (to about 50%)” value was “about 50%”.

Source: patent publication US5922680A, “Stabilized composition for oral administration of peptides” (Ferring, B.V., priority 1997, dated 1999)
